Entries after “also recorded” stand apart in the source; their conditions may differ.
Columns and labels:
[1] = tested on: Atoh1; assay: Steady-state abundance of Atoh1 in human 293T cells; format: cell-based
[2] = tested on: Aminoglycoside-exposed organ of Corti explants; assay: Sox2 lineage tracing in aminoglycoside-exposed organ of Corti explants (hair cell regeneration); format: cell-based
Procedure: Images of the basal turn of the lineage-traced organ of Corti damaged by gentamycin and treated with CK1 inhibitor D4476 for 72 hours. […] The scale bar is 25 μm.
Aminoglycoside-exposed organ of Corti explants^3 were treated with 10 μM D4476 for 72 hours and lineage traced.

[3] = tested on: Atoh1-Huwe1 binding; assay: Co-immunoprecipitation of Atoh1-Huwe1 binding and Atoh1 ubiquitylation in HEK cells; format: cell-based; details: HEK cells co-transfected with HA-ubiquitin and FLAG-Atoh1, 4 hours treatment, co-IP
Procedure: HEK cells were co-transfected with HA-ubiquitin and FLAG-Atoh1 plasmids for 48 hours and treated with CK1 inhibitors (PF-670462 or D4476) and/or proteasome inhibitor MG132 (10 μM) for 4 hours. Immunoprecipitation was performed under denaturing conditions with anti-FLAG antibody. Endogenous Huwe1 was detected with an anti-Huwe1 antibody. Atoh1 was detected with anti-FLAG while ubiquitin was detected with anti-HA antibodies.
To explore the effect of CK1 on proteasomal degradation of Atoh1, we performed co-IP experiments.

[4] = tested on: Atoh1-specific E-box activity; assay: Dual luciferase reporter assay with Atoh1 E-box associated motif (AtEAM) in HEK cells; format: cell-based; details: HEK cells with or without Atoh1 overexpression, overnight, normalized to Renilla luciferase
Procedure: Dual luciferase assay using a firefly reporter construct with an AtEAM motif in HEK cells. Experiments were done in triplicate, and data are presented as the mean±SEM after normalization to Renilla luciferase
DMSO or CK1 inhibitor D4476 was added to HEK with or without overexpression of Atoh1 for overnight to block the degradation of Atoh1 and therefore downstream Atoh1-specific E-box activity.
To further assess potential roles of CK1 in the control of Atoh1 signaling, we performed dual luciferase reporter assays using a firefly reporter construct with an Atoh1 E-box associated motif (AtEAM) and a Renilla control reporter. AtEAM is a ten […] Atoh1-specific binding motif that represents the site for the activity of Atoh1 in numerous downstream genes (Klisch et al., Proc Natl Acad Sci USA. 2011 February 22; 108(8):3288-93). Inhibition of CK1 by D4476 increased and overexpression of CK1 (specifically CK1δ and/or CK1ε) reduced Atoh1 downstream signaling (FIG. 7A).

[5] = tested on: organ of Corti explants; assay: Sox2 lineage tracing of supporting cells in organ of Corti explants (hair cell generation); format: cell-based, mice; design: double-labeled cells positive for Sox2 lineage and myosin VIIa: dose or concentration left out as unconfirmed
Description: Hair cell co-labeling with the lineage tag indicates derivation from a Sox2-positive cell (labeled with asterisks) and is thus evidence for newly generated hair cells by transdifferentiation of supporting cells. OHCs, at the bottom of the image, are delineated by a light gray bracket while IHCs, at the top of the image, are delineated by a white bracket. The scale bar is 25 μm.
(B, C) Effect of CK1 inhibition was significant.
Since CK1 inhibition stabilized Atoh1, we assessed its effect on hair cell generation in the cochlea. A Sox2-positive Cre-reporter strain crossed with CAG-TdTomato (Bramhall et al., Stem cell reports 2, 311-322 (2014)) was used to label all supporting cells for lineage tracing to follow supporting cells after CK1 inhibition.

[6] = tested on: Atoh1; assay: Atoh1 protein in newborn organ of Corti explants (Western blotting, densitometry); format: cell-based, mice; details: newborn mouse organ of Corti explants, 10 μM, 72 hours
Procedure: Effect of CK1 inhibition on Atoh1 upregulation in the organ of Corti. Newborn organs of Corti (P1) were treated with the CK1 inhibitor D4476 (10 uM) for 72 hours. Atoh1 were quantified after Western blotting by densitometry and normalized to a loading control (beta-actin).

[7] = organ of Corti explants, 10 μM, 72 hours, vs DMSO

Structure (SMILES) | steady-state abundance of Atoh1 [1] | Sox2-lineage-tagged hair cells (co-labeled with myosin VIIa and TdTomato) after aminoglycoside damage ([2]; gentamycin-damaged explants, 10 μM, 72 hours) | hair cell regeneration after aminoglycoside damage ([2]; summary statement) | Atoh1-Huwe1 binding [3] | ubiquitylation of Atoh1 [3] | Atoh1 downstream signaling (Atoh1-specific E-box activity) [4] | double-labeled cells positive for Sox2 lineage and myosin VIIa ([5]; mid-base region of neonatal mouse cochlear tissue, 3 days after treatment) | number of reporter-labeled inner hair cells (IHCs) [5, 7] | number of reporter-labeled outer hair cells (OHCs) [5, 7] | hair cell generation in the organ of Corti ([5]; summary statement) | Atoh1 protein in the cochlea based on densitometry [6]
COc1cc(OC)c(C=C2C(=O)Nc3ccccc32)c(OC)c1 [IC-261, 1,3-Dihydro-3-[(2,4,6-trimethoxyphenyl)methylene]-2H-indol-2-one] | increased the steady-state abundance of Atoh1 | – | – | – | – | – | – | – | – | – | –
NC(=O)c1ccc(-c2nc(-c3ccc4c(c3)OCCO4)c(-c3ccccn3)[nH]2)cc1 [D4476, 4-[4-(2,3-Dihydro-1,4-benzodioxin-6-yl)-5-(2-pyridinyl)-1H-imidazol-2-yl]benzamide] | increased the steady-state abundance of Atoh1 | resulted in an increase of Sox2-lineage-tagged hair cells; also recorded: indicated transdifferentiation of supporting cells | promote hair cell regeneration | diminished Atoh1-Huwe1 binding | diminished | increases Atoh1-specific E-box activity; also recorded: increased | found both in the inner hair cell and outer hair cell area | significantly increased; also recorded: significantly more | significantly increased; also recorded: significantly more | increase hair cell generation | caused stabilization of Atoh1 protein
Cl.Cl.Nc1nccc(-c2c(-c3ccc(F)cc3)ncn2C2CCCCC2)n1 [PF-670462, 4-[3-Cyclohexyl-5-(4-fluoro-phenyl)−3H-imidazol-4-yl]-pyrimidin-2-ylamine dihydrochloride] | increased the steady-state abundance of Atoh1 | – | – | diminished Atoh1-Huwe1 binding | diminished | – | – | – | – | – | –

From patent US11185536B2, “Treatment of hearing loss by inhibition of casein kinase 1” (Massachusetts Eye & Ear Infirmary, priority 2015, dated 2021)
